Target: human h-PGDS (Homo sapiens, UniProt O60760)
Experiment: Enzyme Immunoassay (EIA) method, inhibition of hematopoietic PGD2 synthase
Format: biochemical
Conditions: EIA assay, PGD2 formed from PGH2 by human h-PGDS
Protocol: Assay 2: Enzyme Immunoassay (EIA) Method
• a. Preparation of 0.1M K2HPO4/KH2PO4 buffer (pH 7.4) • Prepare 0.1 M KH2PO4 from 1M KH2PO4 (Sigma, Cat# P-8709) • Prepare 0.1 M K2HPO4 from powder of K2HPO4 (Fisher, BP363-500) • Mix 0.1 M K2HPO4 with 0.1 M KH2PO4 to adjust pH to 7.4. • b. Preparation of 0.5% γ-globulin • Add 0.1 g of γ-globulin (Sigma, Cat# G-5009) to 20 mL 0.1 M K2HPO4/KH2PO4 buffer (pH 7.4) and make 1-mL/vial aliquots and store in −80° C. • c. Preparation of 100 mM GSH • Add 307 mg of GSH (Sigma, Cat# G-6529) to 10 mL 0.1 M K2HPO4/KH2PO4 buffer (pH 7.4) and store at −80° C. • d. Preparation of Reaction buffer: • 198 mL of 0.1M K2HPO4/KH2PO4 buffer (pH 7.4) • 2 mM GSH—Prepared from 100 mM GSH • 0.4 g Glycerol • 2 mL of 0.5% γ-globulin • Add 0.4 g of glycerol and 2 mL of 0.5% γ-globulin to 198 mL of 0.1 M K2HPO4/KH2PO4 • buffer (pH7.4). • Add 0.4 mL of 100 mM GSH to 19.6 mL reaction buffer before the assay (enough for two 96-well plates). • e. Preparation of FeCl2/citric acid stopping solution: (8 mg/mL FeCl2, 0.1 M citric acid) • Add 40 mg fresh FeCl2 (IGN, Cat# 158046) to 5 mL 0.1 M citric acid (Sigma, Cat# C0759). • f. Preparation of MOX reagent: • 10% EtOH—Add 1 mL of EtOH to 9 mL of ultra pure H2O • Dissolve 0.1 g of methoxyl amine (Cayman, Cat# 400036/) in 10% EtOH (10 mL). • Add 0.82 g of sodium acetate (Cayman, Cat#400037) to MOX solution and dissolve. II. Materials and Method • Dimethylsulfoxide (DMSO; Sigma; Cat# D2650) • Prostaglandin D2-MOX express EIA kit (Caymen Chemical, Catalog No. 500151)
Before the assay, cool down 10 mL of acetone in polypropylene tubes and empty 96 well plates in ice. All the procedures except compound dilution are performed on ice.
• 1. Dilute compound in DMSO
• 2. Dilute 2 μL of each above concentration of compound to 38 μL of reaction buffer in 96-well plates and mix. IV. Enzyme and Substrate Solution Preparation • 1 Preparation of 0.39 ng/μL enzyme solution (0.35 ng/μL at final after compound addition). • Mix 4 μL of 4 mg/mL human h-PGDS with 396 μL of reaction buffer (to give enzyme concentration 40 μg/mL). Add 46.8 μL of 40 μg/mL h-PGDS to 4.753 mL of reaction buffer to give a total volume of 4.8 mL • 2. Preparation of Substrate Solution (PGH2): Add 0.375 mL of 0.1 mg/mL of PGH2 to 1.625 mL acetone. V. Enzyme Reaction: • 1. Add 60 μL of enzyme solution to compound well and positive control (without compound) in U-bottom polypropylene plate on ice. • 2. Add 60 μL of reaction buffer and 6.6 μL of 5% DMSO in reaction buffer into negative control wells in the plate. • 3. Add 6.6 μL of diluted compound in reaction buffer to the compound wells and mix. • 4. Add 6.6 μL of 5% DMSO in reaction buffer to the positive control well. • 5. Incubate the plate in ice for at least 30 min. • 6. Add 20 μL of substrate (PGH2) solution to compound, negative and positive control wells in the U-bottom 96 well plate on ice. • 7. Dry the plate in cold room for about 25-28 min. • 8. Pipette 45 μL of enzyme solution (above) into 96-wells with dried PGH2 and mix 3 times. Incubate on the ice for 1 min. • 9. Add 45 μL of FeCl2 solution into each wells and mix. • 10. Add 90 μL of MOX solution and mix. • 11. Incubate for 30 min at 60° C. • 12. Dilute the samples 2500× with EIA buffer. VI. EIA Assay • Perform the assay according to the procedure in EIA kit provided by Cayman. Total PGD2 levels (pg/mL) were determined in the samples by EIA kits (Caymen Chemical, Catalog No. 500151) Calculate Amount of PGD2 as Below • Calculated % Positive control according to the equation below; % Positive control=(Compound value−Negative control)/(Positive value−Negative control value)×100. […]

Chain of human h-PGDS (O60760 whole entry): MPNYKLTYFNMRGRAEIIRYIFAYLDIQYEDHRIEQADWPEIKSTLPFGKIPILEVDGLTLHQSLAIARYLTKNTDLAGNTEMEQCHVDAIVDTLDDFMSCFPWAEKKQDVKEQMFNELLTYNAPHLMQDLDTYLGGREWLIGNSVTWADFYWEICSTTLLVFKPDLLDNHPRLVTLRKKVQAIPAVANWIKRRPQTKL

| Structure (SMILES) | IC50 [nM] |
| --- | --- |
| O=C(NN1CCOCC1=O)c1cnc(-c2ccccc2)nc1 [Example 47, 2-Phenyl-pyrimidine-5-carboxylic acid (3-oxo-morpholin-4-yl)-amide] | 55 |
| Cc1nc(-c2cccc(F)c2)ncc1C(=O)Nn1ccc2ccccc21 [Example 109, 2-(3-Fluoro-phenyl)-4-methyl-pyrimidine-5-carboxylic acid indol-1-ylamide] | 10 |
| O=C(NN1CCN(C(=O)C(F)(F)F)CC1)c1cnc(-c2ccccc2)nc1 [Example 88, 2-Phenyl-pyrimidine-5-carboxylic acid [4-(2,2,2-trifluoro-acetyl)-piperazin-1-yl]-amide] | 57 |
| O=C(NN1CCCCC1=O)c1cnc(-c2ccccc2)nc1 [Example 56, 2-Phenyl-pyrimidine-5-carboxylic acid N′-(2-oxo-piperidin-1-yl)-amide] | 55 |
| Cc1nc(-c2ncc(C(=O)NN3CCN(CCO)CC3)cn2)no1 [Example 48, 2-(5-Methyl-[1,2,4]oxadiazol-3-yl)-pyrimidine-5-carboxylic acid [4-(2-hydroxy-ethyl)-piperazin-1-yl]-amide] | 461 |
| Cc1cc2ccccc2n1NC(=O)c1cnc(-c2cccc(F)c2)nc1 [Example 108, 2-(3-Fluoro-phenyl)-pyrimidine-5-carboxylic acid (2-methyl-indol-1-yl)-amide] | 6 |
| COc1ccccc1-c1ncc(C(=O)NN2CC(C)=NNC2=O)cn1 [Example 120, 2-(2-Methoxy-phenyl)-pyrimidine-5-carboxylic acid (6-methyl-3-oxo-2,5-dihydro-3H-[1,2,4]triazin-4-yl)-amide] | 199 |
| O=C(Nn1cc(Br)c(=O)[nH]c1=O)c1cnc(-c2ccccc2)nc1 [Example 72, 2-Phenyl-pyrimidine-5-carboxylic acid (5-bromo-2,4-dioxo-3,4-dihydro-2H-pyrimidin-1-yl)-amide] | 108 |
| Cc1nc(-c2cccnc2)ncc1C(=O)Nn1ccc2ncccc21 [Example 130, 4-Methyl-2-pyridin-3-yl-pyrimidine-5-carboxylic acid pyrrolo[3,2-b]pyridin-1-ylamide] | 14 |
| Cc1nc(-c2cccc(F)c2)ncc1C(=O)Nn1cc(-c2nnn[nH]2)c2cc(F)ccc21 [Example 42, 2-(3-Fluoro-phenyl)-4-methyl-pyrimidine-5-carboxylic acid [5-fluoro-3-(1H-tetrazol-5-yl)-indol-1-yl]-amide] | 5 |
| O=C(Nn1ccc2ccccc21)c1cnc(-c2cccc(F)c2)nc1 [Example 105, 2-(3-Fluoro-phenyl)-pyrimidine-5-carboxylic acid indol-1-yl-amide] | 5 |
| O=C(NN1CCc2ccccc21)c1cnc(-c2ccccc2)nc1 [Example 82, 2-Phenyl-pyrimidine-5-carboxylic acid (2,3-dihydro-indol-1-yl)-amide] | 2 |
| Cc1nc(-c2cccc(F)c2)ncc1C(=O)NN(c1ccccc1)c1ccccc1 [Example 190, 2-(3-Fluoro-phenyl)-4-methyl-pyrimidine-5-carboxylic acid N′,N′-diphenyl-hydrazide] | 16 |
| Cc1nc(-c2cccc(F)c2)ncc1C(=O)Nn1cc(C(N)=O)c2cc(F)ccc21 [Example 162, 5-Fluoro-1-{[2-(3-fluoro-phenyl)-4-methyl-pyrimidine-5-carbonyl]-amino}-1H-indole-3-carboxylic acid amide] | 8 |
| Cc1nc(-c2ccccc2)ncc1C(=O)NN1CCc2ccccc21 [Example 95, 4-Methyl-2-phenyl-pyrimidine-5-carboxylic acid (2,3-dihydro-indol-1-yl)-amide] | 5.5 |
| O=C(NN1CCc2ccccc21)c1cnc(-c2cccc(F)c2)nc1 [Example 91, 2-(3-Fluoro-phenyl)-pyrimidine-5-carboxylic acid (2,3-dihydro-indol-1-yl)-amide] | 3 |
| O=C(NNc1ccccc1F)c1cnc(-c2ccccc2)nc1 [Example 45, 2-Phenyl-pyrimidine-5-carboxylic acid N′-(2-fluoro-phenyl)-hydrazide] | 12 |
| CCc1cn(NC(=O)c2cnc(-c3ncccn3)nc2C)c2ccc(C(F)(F)F)cc12 [Example 176, 4-Methyl-[2,2′]bipyrimidinyl-5-carboxylic acid (3-ethyl-5-trifluoromethyl-indol-1-yl)-amide] | 8 |
| O=C(NN1CCOCC1)c1cnc(Oc2ccccc2)nc1 [Example 58, 2-Phenyoxy-pyrimidine-5-carboxylic acid N′-morpholin-4-yl-amide] | 227 |
| O=C(Nn1ccc2ccccc21)c1cnc(-c2ccccn2)nc1 [Example 104, 2-Pyridin-2-yl-pyrimidine-5-carboxylic acid indol-1-yl-amide] | 4.5 |
| Cc1nc(-c2cccc(F)c2)ncc1C(=O)Nn1ccc2ccncc21 [Example 128, 2-(3-Fluoro-phenyl)-4-methyl-pyrimidine-5-carboxylic acid pyrrolo[2,3-c]pyridin-1-ylamide] | 28.5 |
| CN(NC(=O)c1cnc(-c2ccccc2)nc1)C1CCCCC1 [Example 57, 2-Phenyl-pyrimidine-5-carboxylic acid N′-cyclohexyl-N′-methyl-hydrazide] | 147 |
| O=C(NN1CCOC1=O)c1cnc(-c2ccccc2)nc1 [Example 77, 2-Phenyl-pyrimidine-5-carboxylic acid (2-oxo-oxazolidin-3-yl)-amide] | 49 |
| Cc1cn(NC(=O)c2cnc(-c3cccc(C(F)F)c3)nc2)c2ccc(F)cc12 [Example 226, 2-(3-Difluoromethyl-phenyl)-pyrimidine-5-carboxylic acid (5-fluoro-3-methyl-indol-1-yl)-amide] | 17 |
| O=C(Nn1ccc2cc(F)ccc21)c1cnc(-c2ccccn2)nc1 [Example 124, 2-Pyridin-2-yl-pyrimidine-5-carboxylic acid (5-fluoro-indol-1-yl)-amide] | 18 |
| Cc1cn(NC(=O)c2cnc(-c3ccccn3)nc2C(F)(F)F)c2ccc(F)cc12 [Example 209, 2-Pyridin-2-yl-4-trifluoromethyl-pyrimidine-5-carboxylic acid (5-fluoro-3-methyl-indol-1-yl)-amide] | 8 |
| Cc1nc(-c2cccc(F)c2)ncc1C(=O)Nn1ccc2cccnc21 [Example 122, 2-(3-Fluoro-phenyl)-4-methyl-pyrimidine-5-carboxylic acid pyrrolo[2,3-b]pyridin-1-ylamide] | 12 |
| O=C(NN1CCOCC1)c1cnc(C(=O)c2ccccc2)nc1 [Example 50, 2-Benzoyl-pyrimidine-5-carboxylic acid morpholin-4-ylamide] | 342 |
| O=C(NN1CCN(CCO)CC1)c1cnc(C(=O)c2ccccc2)nc1 [Example 51, 2-Benzoyl-pyrimidine-5-carboxylic acid [4-(2-hydroxy-ethyl)-piperazin-1-yl]-amide] | 665 |
| O=C(Nn1ccc2cc(F)ccc21)c1cnc(-c2ccccc2)nc1 [Example 102, 2-Phenyl-pyrimidine-5-carboxylic acid (5-fluoro-indol-1-yl)-amide] | 3 |

Reference: patent US8258130B2 (Sanofi, priority 2007, dated 2012)
